The source made the active and inactive calls.
What was measured:
[1] = biological target: FAD-linked sulfhydryl oxidase ALR (Homo sapiens, UniProt P55789); assay: inhibitors of human ALR sulfhydryl oxidase, dose response, biochemical, H2O2 detection, luminescence, cherry-pick (AID 493248)
[2] = biological target: Intestinal-type alkaline phosphatase (Mus musculus, UniProt P24822); assay: PubChem AID 488874; assay type: functional
[3] = biological target: T1, Histone-lysine N-methyltransferase NSD2 (Homo sapiens, UniProt O96028); assay type: biochemical
T1 sequence (O96028 whole entry): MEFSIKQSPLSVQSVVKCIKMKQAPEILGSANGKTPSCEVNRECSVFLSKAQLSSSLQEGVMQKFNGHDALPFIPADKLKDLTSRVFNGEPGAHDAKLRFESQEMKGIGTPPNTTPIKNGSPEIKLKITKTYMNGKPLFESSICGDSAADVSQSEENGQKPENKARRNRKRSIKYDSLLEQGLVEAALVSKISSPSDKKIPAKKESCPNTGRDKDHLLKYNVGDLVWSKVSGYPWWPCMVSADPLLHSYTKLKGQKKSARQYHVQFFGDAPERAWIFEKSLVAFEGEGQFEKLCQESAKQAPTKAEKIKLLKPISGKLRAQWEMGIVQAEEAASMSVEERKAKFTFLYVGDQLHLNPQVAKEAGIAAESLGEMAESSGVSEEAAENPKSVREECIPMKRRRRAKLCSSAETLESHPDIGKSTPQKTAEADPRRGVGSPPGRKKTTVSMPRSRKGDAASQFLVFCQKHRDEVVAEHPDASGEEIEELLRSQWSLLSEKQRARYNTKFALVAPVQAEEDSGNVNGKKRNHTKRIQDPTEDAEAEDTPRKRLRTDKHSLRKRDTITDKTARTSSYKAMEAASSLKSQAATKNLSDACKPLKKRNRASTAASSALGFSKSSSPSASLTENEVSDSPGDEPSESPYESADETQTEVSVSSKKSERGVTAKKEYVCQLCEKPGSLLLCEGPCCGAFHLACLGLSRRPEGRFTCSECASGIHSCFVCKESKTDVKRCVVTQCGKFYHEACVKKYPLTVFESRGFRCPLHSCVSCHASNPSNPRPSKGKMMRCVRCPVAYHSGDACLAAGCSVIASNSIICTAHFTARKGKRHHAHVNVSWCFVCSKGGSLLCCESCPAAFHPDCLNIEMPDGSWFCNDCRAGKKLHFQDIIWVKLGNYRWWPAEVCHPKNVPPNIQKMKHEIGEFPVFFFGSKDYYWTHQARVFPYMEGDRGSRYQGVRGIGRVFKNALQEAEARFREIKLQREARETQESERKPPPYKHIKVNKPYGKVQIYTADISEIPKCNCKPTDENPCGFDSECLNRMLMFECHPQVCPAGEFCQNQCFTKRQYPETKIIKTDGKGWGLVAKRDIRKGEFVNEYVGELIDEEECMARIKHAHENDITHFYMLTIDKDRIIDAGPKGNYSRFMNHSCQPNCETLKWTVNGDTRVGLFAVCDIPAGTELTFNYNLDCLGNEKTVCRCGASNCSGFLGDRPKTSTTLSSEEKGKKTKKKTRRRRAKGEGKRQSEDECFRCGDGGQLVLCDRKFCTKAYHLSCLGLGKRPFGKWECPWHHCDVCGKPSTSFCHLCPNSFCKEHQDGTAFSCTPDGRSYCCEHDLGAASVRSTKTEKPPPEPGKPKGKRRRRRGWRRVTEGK

[4] = biological target: T2, Intestinal-type alkaline phosphatase (Homo sapiens, UniProt P09923); assay: Dose Response confirmation of uHTS hits from a small molecule inhibitors of human intestinal alkaline phosphatase via a luminescent assay. [Related pubchem assays (depositor defined):AID2544, AID2574]; assay type: functional
T2 sequence (P09923 whole entry): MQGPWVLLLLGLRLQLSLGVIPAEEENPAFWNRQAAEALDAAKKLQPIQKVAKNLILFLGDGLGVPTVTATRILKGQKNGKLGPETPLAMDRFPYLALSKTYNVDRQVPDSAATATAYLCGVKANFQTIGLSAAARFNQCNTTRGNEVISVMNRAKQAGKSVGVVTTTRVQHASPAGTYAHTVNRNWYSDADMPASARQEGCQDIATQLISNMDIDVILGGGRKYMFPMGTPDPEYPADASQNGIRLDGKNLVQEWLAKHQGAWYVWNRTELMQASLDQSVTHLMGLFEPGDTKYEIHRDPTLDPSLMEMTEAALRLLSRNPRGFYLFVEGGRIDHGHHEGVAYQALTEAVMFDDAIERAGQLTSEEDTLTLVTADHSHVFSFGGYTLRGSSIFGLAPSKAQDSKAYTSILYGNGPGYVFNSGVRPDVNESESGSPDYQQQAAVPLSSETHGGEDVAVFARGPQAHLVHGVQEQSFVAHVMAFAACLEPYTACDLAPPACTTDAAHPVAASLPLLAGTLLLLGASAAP

[5] = biological target: T3, Alkaline phosphatase, tissue-nonspecific isozyme (Homo sapiens, UniProt P05186); assay: inhibition of tissue-nonspecific alkaline phosphatase – biochemical, dose response (AID 488882); assay type: functional
T3 sequence (P05186 whole entry): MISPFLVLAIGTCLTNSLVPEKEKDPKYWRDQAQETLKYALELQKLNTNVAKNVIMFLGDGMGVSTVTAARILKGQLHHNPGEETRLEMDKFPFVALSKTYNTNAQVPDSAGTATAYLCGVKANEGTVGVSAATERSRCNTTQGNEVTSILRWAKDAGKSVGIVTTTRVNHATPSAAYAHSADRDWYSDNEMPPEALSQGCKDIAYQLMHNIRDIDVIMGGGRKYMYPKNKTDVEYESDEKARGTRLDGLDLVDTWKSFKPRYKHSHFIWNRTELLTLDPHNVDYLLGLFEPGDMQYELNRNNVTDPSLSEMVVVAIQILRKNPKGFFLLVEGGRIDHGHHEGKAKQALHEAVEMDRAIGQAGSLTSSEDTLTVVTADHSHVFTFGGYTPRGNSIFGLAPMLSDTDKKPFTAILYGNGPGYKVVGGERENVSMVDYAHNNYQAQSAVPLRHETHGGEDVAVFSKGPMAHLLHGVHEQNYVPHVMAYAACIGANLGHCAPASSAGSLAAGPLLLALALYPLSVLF

Albumin = Albumin (Bos taurus, UniProt P02769); assay: Counterscreen for inhibitors of T-cell receptor (TCR)-CD3 interaction: Fluorescence-based biochemical high throughput dose response assay to identify inhibitors of T-cell receptor (TCR)-CD3 interaction using a TAMRA-labeled BSA probe.; assay type: functional
Sequence of Albumin (P02769 whole entry): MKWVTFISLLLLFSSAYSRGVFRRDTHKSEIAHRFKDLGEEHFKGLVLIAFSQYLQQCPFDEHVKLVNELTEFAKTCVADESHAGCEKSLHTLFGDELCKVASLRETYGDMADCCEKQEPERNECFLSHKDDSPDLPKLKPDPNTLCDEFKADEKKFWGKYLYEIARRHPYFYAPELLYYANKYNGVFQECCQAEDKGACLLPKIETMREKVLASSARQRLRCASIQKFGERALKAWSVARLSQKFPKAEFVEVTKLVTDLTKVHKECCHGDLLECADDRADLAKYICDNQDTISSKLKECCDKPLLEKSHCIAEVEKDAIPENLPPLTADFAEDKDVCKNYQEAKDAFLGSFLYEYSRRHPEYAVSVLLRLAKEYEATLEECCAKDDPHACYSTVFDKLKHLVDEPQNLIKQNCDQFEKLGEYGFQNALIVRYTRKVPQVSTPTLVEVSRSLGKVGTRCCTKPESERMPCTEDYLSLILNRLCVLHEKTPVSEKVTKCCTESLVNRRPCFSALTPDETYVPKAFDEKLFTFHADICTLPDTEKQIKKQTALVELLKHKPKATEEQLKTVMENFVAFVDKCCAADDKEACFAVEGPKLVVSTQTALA

[6] = HEp-2 cell cytotoxicity, dose response, cytotoxicity control for RSV inhibitor project, HTS (AID 2410); assay type: functional; conditions: human respiratory syncytial virus
Vero = Vero cell cytotoxicity, cytotoxicity control for flavivirus capping enzyme inhibitors (AID 588742); assay type: functional; conditions: Chlorocebus sabaeus
Caspase-6 = biological target: T4, Caspase-6 (Homo sapiens, UniProt P55212); assay: human caspase-6 inhibitors, dose response, biochemical, VEID-R110 fluorescence, cherry-pick (AID 720632)
T4 sequence (P55212 whole entry): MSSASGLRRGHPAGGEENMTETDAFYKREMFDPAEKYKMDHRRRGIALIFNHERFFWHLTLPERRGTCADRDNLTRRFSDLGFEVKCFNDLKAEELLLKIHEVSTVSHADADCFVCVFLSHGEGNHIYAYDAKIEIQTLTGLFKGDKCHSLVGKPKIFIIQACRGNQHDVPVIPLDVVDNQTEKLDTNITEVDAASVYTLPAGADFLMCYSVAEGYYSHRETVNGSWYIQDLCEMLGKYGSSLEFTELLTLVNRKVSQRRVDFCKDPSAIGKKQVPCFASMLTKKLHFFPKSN

Large T antigen = Large T antigen (Simian virus 40, UniProt P03070); assay type: functional, Betapolyomavirus macacae;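 note: Confirmatory-stage PubChem screen for compounds that inhibit SV40 T antigen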
Sequence of Large T antigen (P03070 whole entry): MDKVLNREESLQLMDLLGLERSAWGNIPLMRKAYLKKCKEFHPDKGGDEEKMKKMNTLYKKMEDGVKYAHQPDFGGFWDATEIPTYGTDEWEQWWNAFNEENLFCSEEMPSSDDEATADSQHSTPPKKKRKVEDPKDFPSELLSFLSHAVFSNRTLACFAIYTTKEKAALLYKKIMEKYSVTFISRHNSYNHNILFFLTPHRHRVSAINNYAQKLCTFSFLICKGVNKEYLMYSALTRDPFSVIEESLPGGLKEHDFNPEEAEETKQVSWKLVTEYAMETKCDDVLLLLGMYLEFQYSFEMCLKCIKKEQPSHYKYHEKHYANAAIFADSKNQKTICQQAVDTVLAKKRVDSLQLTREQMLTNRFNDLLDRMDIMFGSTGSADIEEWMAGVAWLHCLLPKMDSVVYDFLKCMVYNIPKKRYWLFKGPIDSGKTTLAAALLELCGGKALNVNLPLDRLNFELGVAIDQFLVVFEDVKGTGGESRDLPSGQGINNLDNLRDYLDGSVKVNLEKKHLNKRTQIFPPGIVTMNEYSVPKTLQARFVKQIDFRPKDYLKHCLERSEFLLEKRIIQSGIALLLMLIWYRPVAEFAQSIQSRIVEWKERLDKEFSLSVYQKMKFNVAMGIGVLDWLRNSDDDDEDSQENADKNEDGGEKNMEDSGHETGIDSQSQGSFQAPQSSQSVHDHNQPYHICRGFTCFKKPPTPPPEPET

[7] = biological target: T2, Intestinal-type alkaline phosphatase; assay: human IAP inhibitors, dose response, biochemical, luminescent, uHTS hits, set 2 (AID 488793); assay type: functional
[8] = inhibitors of SNCA 5'UTR-driven reporter translation, confirmation, H4 neuroglioma cells, luminescence (AID 1988); assay type: functional, cell-based
[9] = biological target: Sphingosine 1-phosphate receptor 4 (Homo sapiens, UniProt O95977); assay: Fluorescence dose response cell-based high throughput screening assay for agonists of the Sphingosine 1-Phosphate Receptor 4 (S1P4). [Related pubchem assays: 1509 (Primary screen.), 1523 (Confirmation screen in triplicates.)]; assay type: functional
Sequence of Sphingosine 1-phosphate receptor 4 (O95977 whole entry): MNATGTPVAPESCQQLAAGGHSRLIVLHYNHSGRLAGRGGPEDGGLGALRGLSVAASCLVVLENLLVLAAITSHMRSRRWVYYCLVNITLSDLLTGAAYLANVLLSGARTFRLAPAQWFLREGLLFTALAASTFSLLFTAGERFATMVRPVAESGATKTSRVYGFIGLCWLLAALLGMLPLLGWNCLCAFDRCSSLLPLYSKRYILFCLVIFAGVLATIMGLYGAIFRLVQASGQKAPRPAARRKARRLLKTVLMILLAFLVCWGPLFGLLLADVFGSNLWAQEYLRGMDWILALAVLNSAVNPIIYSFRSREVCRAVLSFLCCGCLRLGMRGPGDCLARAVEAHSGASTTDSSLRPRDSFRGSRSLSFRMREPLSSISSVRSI

[10] = Luminescence Cell-Based Dose Response HTS to Identify Inhibitors of 5'UTR Stem-Loop Driven Prion Protein mRNA Translation in H4 Neuroglioblastoma Cells. [Related pubchem assays: 1827 (Project Summary), 1813 (Primary HTS)]; assay type: functional
[11] = inhibitors of firefly luciferase expression or activity, dose response, H4 neuroglioma cells, luminescence (AID 1990); assay type: functional, cell-based
[12] = biological target: Sphingosine 1-phosphate receptor 1 (Homo sapiens, UniProt P21453); assay: Fluorescence-based counterscreen assay for S1P4 agonists: Cell-based dose response high throughput screening assay to identify agonists of the Sphingosine 1-Phosphate Receptor 1 (S1P1). [Related pubchem assays (depositor defined):AID1509, AID1523, AID1801, AID463107, AID463118, AID463119, AID463122, AID463123, AID463129, AID463225, AID504400, AID504460]; assay type: functional
Sequence of Sphingosine 1-phosphate receptor 1 (P21453 whole entry): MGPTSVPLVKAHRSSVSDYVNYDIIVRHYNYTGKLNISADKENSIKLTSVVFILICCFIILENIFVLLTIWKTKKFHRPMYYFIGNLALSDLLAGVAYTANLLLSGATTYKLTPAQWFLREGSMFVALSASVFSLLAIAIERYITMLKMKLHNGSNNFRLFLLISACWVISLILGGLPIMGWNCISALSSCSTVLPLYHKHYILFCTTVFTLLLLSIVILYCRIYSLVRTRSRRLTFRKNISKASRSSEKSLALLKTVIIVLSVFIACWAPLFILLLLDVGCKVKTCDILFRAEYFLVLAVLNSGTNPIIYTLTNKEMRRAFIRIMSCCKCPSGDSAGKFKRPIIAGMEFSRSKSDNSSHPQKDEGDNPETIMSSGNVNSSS

[13] = biological target: Kappa-type opioid receptor (Homo sapiens, UniProt P41145); assay: SAR analysis of small molecule agonists of the kappa opioid receptor via a luminescent beta-arrestin assay - Set 3. [Related pubchem assays (depositor defined):AID1777, AID1785, AID1786, AID1966, AID2133, AID2136, AID2284, AID2500]; assay type: functional
Sequence of Kappa-type opioid receptor (P41145 whole entry): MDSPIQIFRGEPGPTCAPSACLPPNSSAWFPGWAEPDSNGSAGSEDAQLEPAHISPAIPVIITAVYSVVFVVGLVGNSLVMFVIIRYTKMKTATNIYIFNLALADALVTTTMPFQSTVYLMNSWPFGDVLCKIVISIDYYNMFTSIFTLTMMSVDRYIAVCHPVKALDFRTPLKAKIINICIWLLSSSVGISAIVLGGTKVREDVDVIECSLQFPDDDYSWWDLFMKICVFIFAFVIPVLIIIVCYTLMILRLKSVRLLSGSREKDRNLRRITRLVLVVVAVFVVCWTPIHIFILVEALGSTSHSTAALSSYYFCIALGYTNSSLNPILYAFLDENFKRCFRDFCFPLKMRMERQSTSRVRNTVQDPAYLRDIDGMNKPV

Sequence of FAD-linked sulfhydryl oxidase ALR (P55789 whole entry): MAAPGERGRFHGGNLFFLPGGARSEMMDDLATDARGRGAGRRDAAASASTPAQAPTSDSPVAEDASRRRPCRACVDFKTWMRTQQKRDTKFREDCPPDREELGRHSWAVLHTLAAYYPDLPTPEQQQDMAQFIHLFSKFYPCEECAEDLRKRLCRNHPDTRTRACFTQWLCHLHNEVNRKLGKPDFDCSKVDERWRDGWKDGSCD
Sequence of Intestinal-type alkaline phosphatase (Mus musculus, UniProt P24822) (P24822 whole entry): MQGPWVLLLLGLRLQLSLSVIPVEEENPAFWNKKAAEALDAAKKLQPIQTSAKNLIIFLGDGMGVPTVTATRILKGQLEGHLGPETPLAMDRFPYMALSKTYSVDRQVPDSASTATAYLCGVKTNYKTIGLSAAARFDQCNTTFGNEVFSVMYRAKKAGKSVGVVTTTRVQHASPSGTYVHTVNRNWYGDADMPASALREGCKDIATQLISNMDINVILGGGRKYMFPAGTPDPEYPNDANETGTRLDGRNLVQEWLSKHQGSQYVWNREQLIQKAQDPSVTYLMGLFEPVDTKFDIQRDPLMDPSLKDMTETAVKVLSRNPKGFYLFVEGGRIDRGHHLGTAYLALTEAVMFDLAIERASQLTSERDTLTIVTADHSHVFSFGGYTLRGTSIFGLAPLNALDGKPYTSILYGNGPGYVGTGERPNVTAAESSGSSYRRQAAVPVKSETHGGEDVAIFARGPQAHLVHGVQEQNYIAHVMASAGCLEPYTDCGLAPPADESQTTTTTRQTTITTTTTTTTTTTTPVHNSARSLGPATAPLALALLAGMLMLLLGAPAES

O=C1Nc2ccccc2/C1=N/N=C/c1ccc(O)c(O)c1
AC50 [1]: 0.83 µM (active) | IC50 [2]: 4.79 µM (active) | AC50 [3]: 0.407 µM (active) | IC50 [4]: 7.95 µM (active) | IC50 [5]: 3.29 µM (active) | IC50 (Albumin): > 94.1 µM (inactive) | CC50 [6]: 22.4 µM (active) | CC50 (Vero): > 40 µM (active) | AC50 (Caspase-6): 0.226 µM (active) | IC50 (Large T antigen): 3.29 µM (active) | IC50 [7]: 7.63 µM (active)

N#Cc1cc2c(=O)n3ccccc3nc2n(-c2ccccc2Cl)c1=O
EC50 [8]: 11 µM (active) | EC50 [9]: 2.88 µM (active) | EC50 [10]: > 120 µM (not active) | EC50 [11]: > 120 µM (not active) | EC50 [12]: 10.4 µM (inactive)

Clc1ccc(CSc2nnc(-c3ccncc3)n2Cc2ccco2)cc1Cl
EC50 [13]: > 20 µM (inactive)

Reference: ChEMBL document CHEMBL1201862, “PubChem BioAssay data set” (2004)
